The text below walks through data of ChEMBL document CHEMBL5120925, “Antagonistic Effect and In Vitro Activity of Dauricine on Glucagon Receptor” (J Nat Prod, 2022).

For series [1], the target named is Glucagon receptor (Homo sapiens) (UniProt P47871). Nature of the series: Antagonist activity at […] (unknown origin) expressed in HEK293 cells assessed as inhibition of GCG binding by measuring increase in fluorescence intensity at 0.1 mM incubated for 30 to 40 mins by FLUO-4 AM based inverted fluorescence microscopic imaging analysis. The series is classed as functional, cell-based. To be noted: filed as antagonist, time 30-40 min.
Chain of Glucagon receptor (Homo sapiens) (P47871 whole entry): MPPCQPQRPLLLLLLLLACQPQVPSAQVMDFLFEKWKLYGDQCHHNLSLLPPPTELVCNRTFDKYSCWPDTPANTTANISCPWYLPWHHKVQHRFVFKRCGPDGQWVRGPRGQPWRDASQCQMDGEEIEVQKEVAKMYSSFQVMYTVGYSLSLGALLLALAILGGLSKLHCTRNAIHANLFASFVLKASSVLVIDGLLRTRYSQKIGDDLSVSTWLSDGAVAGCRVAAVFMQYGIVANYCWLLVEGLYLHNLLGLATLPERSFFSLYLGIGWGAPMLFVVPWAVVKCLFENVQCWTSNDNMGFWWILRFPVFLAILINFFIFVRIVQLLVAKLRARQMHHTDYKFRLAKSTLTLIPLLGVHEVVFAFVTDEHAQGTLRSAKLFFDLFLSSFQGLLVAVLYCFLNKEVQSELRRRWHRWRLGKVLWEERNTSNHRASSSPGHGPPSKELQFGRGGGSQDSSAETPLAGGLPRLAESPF

Series [2] has the same target. Nature of the series: Antagonist activity at GCGR (unknown origin) expressed in HEK293 cells assessed as inhibition of GCG binding by measuring increase in fluorescence intensity at 10 uM incubated for 30 to 40 mins by FLUO-4 AM fluorescence based flow cytometric analysis. It is filed as functional, cell-based. To be noted: filed as antagonist, time 30-40 min.
A short description of series [3]: Cytotoxicity against HEK293 cells assessed as inhibition of cell growth incubated for 24 hrs by MTT assay. The series is classed as toxicity, cell-based. As to conditions: human. Background: Tetrazolium assays rely on reduction of a dye to a coloured formazan, in cell work by metabolically active cells.

Calls of active or inactive are those of the source. The calls are words filed in the database; no cut-off is given here.

Turning to H-SQGTFTSEYSKYLDSRRAQDFVQWL-NH2, the outcome in series [1] was Active.

With `COc1cc2c(cc1OC)[C@@H](Cc1ccc(Oc3cc(C[C@H]4c5cc(OC)c(OC)cc5CCN4C)ccc3O)cc1)N(C)CC2`, the outcome in series [2] was Active. Moreover, in series [3], the IC50 (usually the concentration at which inhibition is half-maximal) at 24 h is 10.6 µM.
